Measured values published in paper PMC7290078, “Agonist bias and agonist‐dependent antagonism at corticotrophin releasing factor receptors” (Pharmacology Research & Perspectives, 2020).
No end group written: not given here.

What was measured:
CRF1 receptor (hCRF1α) [1] = target: T1, CRF1 receptor (hCRF1α) (Homo sapiens, UniProt P34998); assay: IP1 accumulation (IP-one Gq) in Cos7 cells transfected with hCRF1α, agonist stimulation; type: cell-based
T1 construct: host or cells: Cos7 cells, transient transfection (PEI), pcDNA3.0/3.1 vector
T1 sequence (P34998 24-415): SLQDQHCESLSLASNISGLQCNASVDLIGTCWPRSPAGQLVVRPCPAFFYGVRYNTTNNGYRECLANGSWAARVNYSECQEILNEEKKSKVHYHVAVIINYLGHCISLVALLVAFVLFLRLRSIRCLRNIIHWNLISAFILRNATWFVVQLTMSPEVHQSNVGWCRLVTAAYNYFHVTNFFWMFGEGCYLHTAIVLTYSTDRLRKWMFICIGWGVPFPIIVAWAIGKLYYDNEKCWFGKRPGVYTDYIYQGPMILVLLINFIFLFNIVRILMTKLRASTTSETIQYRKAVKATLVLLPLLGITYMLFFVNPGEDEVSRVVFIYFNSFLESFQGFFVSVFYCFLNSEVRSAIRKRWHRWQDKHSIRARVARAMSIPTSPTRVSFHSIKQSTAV
Source text: Plasmids containing hCRF1α and hCRF2α (GenBank accession numbers AY457172 and AY449734) were obtained from the cDNA Resource Centre (Bloomsburg University) and are referred to as CRF1 and CRF2 in this manuscript. Hemagglutinin (HA) epitope‐tagged human Calcitonin (CT) receptor (CT(a) splice variant) and myc‐tagged human RAMP1 were used as described previously. ^27 HA‐tagged human calcitonin receptor‐like receptor (CLR), N‐terminal FLAG‐tagged human RAMP3 and N‐terminal myc‐tagged human RAMP3 were a gift from Professor David Poyner (Aston University) and Professor Patrick Sexton (Monash University), respectively. […]
Cos7, HEK‐293S, and HEK‐293T cells were cultured as described previously. ^28 , ^29 Cos7 cells were originally supplied by the ATCC to Associate Professor Nigel Birch (University of Auckland). […] For transfection, cells were counted (Countess CounterTM; Life Technologies) and plated at a density of 20 000 cells per well in 96‐well plates. […]
The IP‐one Gq assay kit (Cisbio) was used to quantify accumulated myo‐inositol‐1‐phosphate (IP1), a by‐product of IP3 produced after receptor‐mediated Gαq activation in Cos7 and HEK‐293S cells. […] Fifteen microliters of sample was then transferred to a 384‐well optiplate and read by an Envision plate reader (PerkinElmer). IP1 concentrations were calculated from a standard curve generated in duplicate. […]

CRF1 receptor (hCRF1α) [2] = target: T1, CRF1 receptor (hCRF1α); assay: cAMP accumulation (LANCE) in Cos7 cells transfected with hCRF1α, agonist stimulation; type: cell-based
Source text: Plasmids containing hCRF1α and hCRF2α (GenBank accession numbers AY457172 and AY449734) were obtained from the cDNA Resource Centre (Bloomsburg University) and are referred to as CRF1 and CRF2 in this manuscript. Hemagglutinin (HA) epitope‐tagged human Calcitonin (CT) receptor (CT(a) splice variant) and myc‐tagged human RAMP1 were used as described previously. ^27 HA‐tagged human calcitonin receptor‐like receptor (CLR), N‐terminal FLAG‐tagged human RAMP3 and N‐terminal myc‐tagged human RAMP3 were a gift from Professor David Poyner (Aston University) and Professor Patrick Sexton (Monash University), respectively. N‐terminal FLAG‐tagged human RAMP2 was used as described previously. ^28 All receptors and RAMPs were cloned in pcDNA3.0 or pcDNA3.1 plasmid vectors. All plasmid inserts were sequenced at the Centre for Genomics, Proteomics and Metabolomics (University of Auckland) and the sequences were verified prior to use.
Cos7, HEK‐293S, and HEK‐293T cells were cultured as described previously. ^28 , ^29 Cos7 cells were originally supplied by the ATCC to Associate Professor Nigel Birch (University of Auckland). HEK‐293S cells were a gift from Professor David Poyner (Aston University) and HEK‐293T cells a gift from Professor John Taylor (University of Auckland). Briefly, all cell lines were cultured in Dulbecco's Modified Eagle Medium (DMEM) supplemented with 8% heat inactivated fetal bovine serum (FBS) and maintained in a humidified incubator at 37°C with 5% CO2. For transfection, cells were counted (Countess CounterTM; Life Technologies) and plated at a density of 20 000 cells per well in 96‐well plates. The cells were transiently transfected 48 hours prior to assaying using polyethylenimine (PEI), as described previously. ^28 , ^29 In all experiments a total of 0.25 μg DNA was transfected per well. In the majority of experiments 0.25 μg DNA of receptor‐containing plasmid or the pcDNA3.1 plasmid without an insert was used. For experiments involving RAMPs, 0.125 μg of receptor DNA and 0.125 μg of RAMP‐containing plasmid DNA were transfected to give a 1:1 ratio of receptor to RAMP. […]
cAMP accumulation in Cos7 cells transfected with hCRF1α or hCRF2α receptors was measured using the LANCE cAMP detection assay kit (PerkinElmer Life and Analytical Sciences) as described previously. ^30 Briefly, culture media was removed and replaced with DMEM containing 0.1% bovine albumin serum (BSA) and 1 mmol/L 3‐isobutyl‐1‐methylxanthine (IBMX) for 30 minutes at 37°C. […] Samples were shaken for 15 minutes before 5 µL cell lysate was transferred to a white 384‐well optiplate and processed for cAMP quantification as described previously. ^31 Samples were read using an Envision plate reader (PerkinElmer). cAMP concentrations were determined from a standard curve generated in duplicate. […]

DNPSLSIDLTFHLLRTLLELARTQSQRERAEQNRIIFDSV-NH2 [UCN1]
EC50 (CRF1 receptor (hCRF1α) [1]; IP1, hCRF1α, Cos7, 90 min at 37°C, 50 mmol/L LiCl, 1 pmol/L to 10 µmol/L agonist, mean ± SEM, n = 5): 7.76 nM | EC50 (CRF1 receptor (hCRF1α) [2]; cAMP, hCRF1α, Cos7, 15 min at 37°C, 1 mmol/L IBMX, 1 pmol/L to 1 µmol/L agonist, mean ± SEM, n = 5): 0.107 nM

IVLSLDVPIGLLQILLEQARARAAREQATTNARILARVGHC-NH2 (C-terminus assumed) [UCN2]
concentration‐dependent increase in IP1 accumulation (CRF1 receptor (hCRF1α) [1]; CRF1 receptor): not UCN2 and UCN3 exhibited a concentration‐dependent increase | concentration‐dependent increase in cAMP (CRF1 receptor (hCRF1α) [2]; CRF1 receptor): not UCN2 and UCN3 exhibited a concentration‐dependent increase
